Consider one molecule from US20240165154A1, “METHODS AND AGENTS FOR MODULATING ADOPTIVE IMMUNOTHERAPY” (The Regents of the University of California, priority 2021, published 2024).

Molecules are shown by their SMILES.

The conditions of data set [1]: after intravenous infusion; cited from earlier work.
Data set [2] deals with CD8+ T cells from spleens of BL/6J mice. Put plainly: T cell proliferation assay (CELLTRACE Violet) of MSCV-transduced CD8+ T cells in metabolic conditions. The conditions noted are these: 48 hr. The class given is cell-based, mouse. The procedure: Spleens from BL/6J mice (Jackson Laboratory #000664; https://www.jax.org/strain/000664) were harvested, minced, resuspended in fluorescence-activated cell sorting (FACS) buffer (phosphate buffered saline (PBS)+2% fetal bovine serum (FBS)+1 mM ethylene diamine tetra-acetic acid (EDTA) (THERMOFISHER SCIENTIFIC™, #15575020)), and strained through a 40-micron nylon mesh filter (Millipore Sigma, CLS431750-50EA). The cellular suspension was then centrifuged at 600× g for 10 minutes before isolating CD8+ T cells using standard protocol from an immunomagnetic separation kit (EASYSEP™ Mouse CD8+ T Cell Isolation Kit, STEMCELL™ Technologies, #19853).
For activation, 5×10^6 stained CD8+ T cells were resuspended in 1 mL of complete T cell medium (RPMI 1640+10% fetal bovine serum (FBS)+1 mM Na Pyruvate+10 mM 4-(2-hydroxyethyl)-1-piperazineethanesulfonic acid (HEPES)+1% penicillin/streptomycin (pen/strep)+0.1% beta-mercaptoethanol) supplemented with 2 ug/mL anti-CD28 clone 37.51 (BIOXCELL™, #BE0015-1) and plated into one well of a 12 well plate coated with 10 micrograms/mL (μg/mL) of anti-CD3e clone 2C11 (BIOXCELL™, #BE0001-1). 24 hours later, plates were lightly spun down at 100× g for 2 minutes, before removing 800 ul of supernatant. 1 mL of T cell media containing concentrated virus was then overlaid, before centrifugation at 800×g for 1 hour at 32C (32° C.). […]

The test system of data set [3] is B16 melanoma cell line constitutively expressing GFP. Put plainly: B16 melanoma proliferation/survival assay in HG, LG, LG+C (GFP positivity as proxy for viability). The conditions noted are these: starvation (low glucose, LG) conditions + cellobiose (+C). It counts as cell-based. An excerpt: The protocol for proliferation of the B16 melanoma tumor cell line (FIG. 19) constitutively expressing GFP is identical to the other proliferation assays described above, minus the prior transfection with plasmids.
In order to study the effects of cellobiose on tumors, the high glucose (HG), low glucose (LG), and low glucose+cellobiose (LG+C) in vitro studies of FIGS. 18A-18B were repeated using a B16 melanoma cell line constitutively expressing GFP.

As for `O=C[C@H](O)[C@@H](O)[C@H](O[C@@H]1O[C@H](CO)[C@@H](O)[C@H](O)[C@H]1O)[C@H](O)CO` [cellobiose], the “excretion in the urine” value in data set [1] is “vast majority of cellobiose is excreted in the urine”. The “T-cell proliferation (CELLTRACE VIOLET) of mCh+ GFP+ cells co-transduced with CDT-1 and GH1-1” value in data set [2] (low glucose + cellobiose (LG+C) vs low glucose) is “rescued T-cell proliferation”. Further, the “wild-type (WT) T-cell proliferation” value in data set [2] (low glucose environment when cellobiose was added) is given as “minor increase”. Also, in data set [3], the “B16 melanoma tumor survival (GFP positivity as proxy for cell viability)” value is on record as “did not promote B16 melanoma tumor survival”.
